The source of these data is US7638600B2 (priority 2004, dated 2009).

Converted amounts (≈) assume the structure as drawn.

In one test the test system is spores. Type of test: cell-based.
Another test deals with RSVF1. The experiment in a line: microbe, parasite or virus in culture. Type of test: cell-based, B. cereus. Conditions: Bacillus cereus, read-out: MIC for fosfomycin.
A further test has as its system RSVF1/pDG148. As to the kind of experiment: microbe, parasite or virus in culture. Type of test: cell-based, B. cereus. Conditions: Bacillus cereus, read-out: MIC for fosfomycin.
For the next test, the system named is RSVF1/pDG148::gp41. The experiment in a line: microbe, parasite or virus in culture. Type of test: cell-based, B. cereus.

For the molecule `C[C@@H](N)C(=O)O` [D-alanine], the germination frequency in the test on spores is listed as under 10%.
For the molecule `C[C@H](N)C(=O)O` [L-alanine], in the test on spores, the “spores converted to heat sensitive forms” value is listed as over 99%.
As for `C[C@@H]1O[C@@H]1P(=O)(O)O` [fosfomycin], the MIC with RSVF1 is 62.5 µg/mL (≈ 453 µM); in the test on RSVF1/pDG148, 62.5 µg/mL (≈ 453 µM); in the test on RSVF1/pDG148::gp41 (Bacillus cereus, read-out: MIC for fosfomycin), 500 µg/mL (≈ 3620 µM). Moreover, the “increase in resistance to the antibiotic fosfomycin” value in the test with RSVF1/pDG148::gp41 is 4 log.
